These results are taken from ChEMBL document CHEMBL1157706, “Inhibitors of human tyrosyl-DNA phospodiesterase (hTdp1) developed by virtual screening using ligand-based pharmacophores” (Bioorg Med Chem, 2010).

The target of assay [1] is T1, Tyrosyl-DNA phosphodiesterase 1 (Homo sapiens, UniProt Q9NUW8). In words: Inhibition of human tyrosyl-DNA phosphodiesterase 1 after 30 mins by alpha high throughput screening assay.
The target of assay [2] is T1, Tyrosyl-DNA phosphodiesterase 1. The experiment in a line: Inhibition of human tyrosyl-DNA phosphodiesterase 1 after 30 mins by alpha high throughput screening assay in presence of 0.05% Tween-20.
The target is the same in assay [3]. In words: Inhibition of human tyrosyl-DNA phosphodiesterase 1 after 30 mins by alpha high throughput screening assay in presence of 0.01% Tween-20.

Each structure is given as a SMILES string.

What is called IC50 is the concentration at which inhibition is half-maximal.

T1 sequence (Q9NUW8 whole entry): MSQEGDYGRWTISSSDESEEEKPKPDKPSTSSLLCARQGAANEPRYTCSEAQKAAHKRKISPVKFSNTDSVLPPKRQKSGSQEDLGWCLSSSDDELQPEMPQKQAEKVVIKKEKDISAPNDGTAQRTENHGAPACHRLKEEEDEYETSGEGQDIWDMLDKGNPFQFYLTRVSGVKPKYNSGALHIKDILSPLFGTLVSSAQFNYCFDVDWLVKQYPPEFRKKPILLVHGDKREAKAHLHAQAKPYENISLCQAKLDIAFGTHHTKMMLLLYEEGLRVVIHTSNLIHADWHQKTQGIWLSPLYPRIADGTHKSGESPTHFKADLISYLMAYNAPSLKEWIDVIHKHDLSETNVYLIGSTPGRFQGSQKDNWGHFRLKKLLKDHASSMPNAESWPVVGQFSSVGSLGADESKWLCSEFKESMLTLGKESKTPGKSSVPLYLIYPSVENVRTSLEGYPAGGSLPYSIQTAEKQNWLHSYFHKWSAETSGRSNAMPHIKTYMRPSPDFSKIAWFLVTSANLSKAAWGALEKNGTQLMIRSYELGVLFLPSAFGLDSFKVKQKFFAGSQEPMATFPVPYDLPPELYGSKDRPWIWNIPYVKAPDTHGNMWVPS

As for `O=c1c2ccccc2c2ccccc2c(=O)n1-c1cccc2c1ccc1c3ccccc3ccc21`, inhibition in assay [1] was half-maximal at 5 µM (IC50).
As to `COc1cc(/C=C/C(=O)OC(C(=O)N2CCCCC2)c2ccccc2)ccc1O` (stereo not drawn), the IC50 in assay [2] was 70.8 µM; in assay [3], 79.4 µM.
In assay [1], `Fc1cccc(Cl)c1/C=N/N=C1c2ccccc2-c2ccccc21` had an IC50 of 14 µM.
Regarding `CCOc1cccc2cc(C(=O)OCC(=O)c3c[nH]c4ccccc34)c(=O)oc12`, the IC50 in assay [2] amounted to 22.4 µM; in assay [3], 14.1 µM.
Turning to `CCOC(=O)CN(C(=O)COC(=O)Cc1c[nH]c2ccccc12)c1ccc(F)cc1`, the IC50 in assay [2] was determined as 11.2 µM; in assay [3] it was 7.94 µM.
The like results for `O=C(OCc1cn2ccccc2n1)c1c2c(nc3ccccc13)CCC2` were, in that order, 50.1 µM and 35.5 µM.
With `COC(=O)c1ccc(COc2ccc(C3Nc4ccccc4C(=O)N3C3CC3)cc2OC)cc1` (stereo not drawn), the figures for the IC50 in assay [2] and in assay [3] were 89.1 µM and 44.7 µM, respectively.
The like results for `CCOC(=O)c1sc(N2C(=O)c3oc4ccc(F)cc4c(=O)c3C2c2ccc(C)cc2)nc1C` (stereo not drawn) were, in that order, 50.1 µM and 44.7 µM.
Consider `Cc1cc(C)nc(N/C=C(\C#N)C(=O)c2cccc(CSc3ccccc3)c2)n1`, for which the values for the half-maximal inhibitory concentration (IC50) in assay [2] and in assay [3] were 79.4 µM and 100 µM, respectively.
The like results for `O=C(/C=C/c1ccc(C(F)(F)F)cc1)OC(C(=O)NC1CC1)c1ccccc1` (stereo not drawn) were, in that order, 44.7 µM and 31.6 µM.
